Results: US4052455A, “Styrylamidines” (Mead Johnson & Company, priority 1975, dated 1977)
Structures can show the parent of a compound that is named as a salt.

Columns and labels:
[1] = system: phenylquinone writhing syndrome; experiment: Phenylquinone writhing test (analgesic activity); type: in vivo; settings: mice
Experimental: In this test, groups of 10-20 mice are injected subcutaneously or orally with different doses of the test compound. At predetermined time intervals, the mice receive 2.5 mg./kg. phenylquinone intraperitoneally. The total number of writhing episodes is counted for each mouse for 10 min. and the average percent decrease in writhing recorded for each dose.
The novel styrylsulfonylamidines of Formula V in addition to being useful as precursors to the styrylamidine products of Formula I have analgesic utility as measured in the foregoing phenylquinone writhing test. A preferred class of styrylsulfonylamidines of Formula V having particularly significant analgesic activity are those wherein R1 and R2 are each hydrogen, nitro or halogen and A is phenyl or lower alkyl of from 1 to 8 carbon atoms inclusive. Analgesic activity at the time interval indicated following administration of compounds representative of this class are given in Table I below.

CNS = CNS effects after oral or intraperitoneal administration to the mouse; type: in vivo
Experimental: 5,6-Dihydro-4-methyl-5-(4-nitrophenyl)-3-phenyl-4H-1,2,4-thiadiazine 1,1-dioxide was not effective in preventing the phenylquinone writhing syndrome in mice at an oral dose of 100 mg./kg. body weight or subcutaneous dose of 6 mg./kg. body weight.

mouse electroshock = experiment: Mouse electroshock test of Swinyard (anticonvulsant); type: in vivo
Text: Aside from antithrombogenic and analgesic effects, compounds of Formula I wherein R1 and R2 substituents are halogen (particularly chlorine), R3 is hydrogen or methyl and A is selected from the group consisting of lower alkyl of from 1 to 8 carbon atoms inclusive or cycloalkyl of from 3 to 6 carbon atoms inclusive, are useful as anticonvulsant, hypotensive and antihypertensive agents. […] For example, N-(2,6-dichlorostyryl)acetamidine in the mouse electroshock test of E. A. Swinyard, J. Amer. Pharm.

blood pressure [2] = experiment: Blood pressure and heart rate in anesthetized normotensive dog; type: in vivo
Experimental: (§1) For instance, at 1.0 mg./kg. body weight, this compound provides a 33% reduction in blood pressure while at 10.0 mg./kg. body weight, a 64% reduction in blood pressure is obtained. In the same test procedure, the prior art cinnamylamidine, N-(4-chlorocinnamyl)acetamidine, provided a 12% increase in blood pressure with a 6% decrease in heart rate at a dose of 1.0 mg./kg. body weight. At a dose of 10.0 mg./kg. body weight, the prior art cinnamylamidine provides an increase of 26% in blood pressure.

blood pressure [3] = experiment: Blood pressure in spontaneous hypertensive rat; type: in vivo
Experimental: as §1

urine output = experiment: Lipschitz diuretic test; type: in vivo
Text: N-(2,6-dichlorostyryl)acetamidine is orally effective as a diuretic agent according to the W. L. Lipschitz, et al., J. Pharmacol. Expt.

platelet aggregation = experiment: Born/O'Brien nephelometric platelet aggregation test in platelet rich plasma (ADP or collagen induced); type: cell-based; settings: human or rabbit platelet rich plasma, 50% or more reduction, read-out: Concentration at which collagen or adenosine diphosphate induced platelet aggregation is reduced by 50% or more
Experimental: (§2) Measurement of the antithrombogenic activity of the compounds of Formula I is carried out by standard pharmacological tests essentially described by Born, Nature, 194, 927 (1962) and O'Brien, J. Clin. Path., 15, 446 (1962). This test comprises a nephelometric method is which the change in turbidity of a specimen of platelet rich plasma (human or rabbit) is measured on causation of platelet aggregation by addition of a thrombogenic inducing agent such as adenosine diphosphate or collagen. The compounds of the present invention are effective antithrombogenic agents according to this test at concentrations in the order of about 0.5 to 90 mcg./0.5 ml. platelet rich plasma. In the intact animal, the antithrombogenic effect is readily observed by applying the above test to blood samples withdrawn prior to and after administration of a compound of the present invention.

[4] = system: blood platelet aggregation; experiment: Oral administration to rabbits; inhibition of blood platelet aggregation induced by ADP or collagen in platelet rich plasma (Example 56); type: in vivo; settings: rabbit, oral single dose 25 mg./kg.; for % Inhibition of Blood Platelet Aggregation Induced by ADP: ADP 0.25-1.0 microgram; for % Inhibition of Blood Platelet Aggregation Induced by Collagen: lowest amount of collagen giving maximal aggregation
Experimental: as §2
The styrylamidine is orally administered to each rabbit in a group of 2-6 rabbits at a single dose of 25 mg./kg. body weight. A 8 ml. portion of blood is drawn just prior to dosing in order to obtain a control value and at various time periods thereafter. Platelet rich plasma is prepared from each blood sample by centrifugation at 200 times gravity for 10 min. at room temperature. Samples (0.5 ml.) of platelet rich plasma are tested for their ability to aggregate with either collagen or adenosine-5'-diphosphate added as specified in the modification of Born and O'Brien method which has been fully described hereinbefore. The results shown below indicate the inhibition of blood platelet aggregation induced by the lowest amount of collagen giving maximal aggregation or 0.25-1.0 microgram adenosine-5'-diphosphate for representative amidines.

[5] = as reported in U.S. Pat. No. 3,413,345; cited from earlier work
[6] = subcutaneous 6 mg./kg., time interval 30 min.

## CN1C(c2ccccc2)=NS(=O)(=O)CC1c1ccc([N+](=O)[O-])cc1 (stereo not drawn) [5,6-dihydro-4-methyl-5-(4-nitrophenyl)-3-phenyl-4H-1,2,4-thiadiazine 1,1-dioxide]
[1]; oral dose 100 mg./kg. body weight
  Prevention of the phenylquinone writhing syndrome: not effective
[1]; subcutaneous dose 6 mg./kg. body weight
  Prevention of the phenylquinone writhing syndrome: not effective
CNS
  CNS effect: non-specific CNS depression

## CC(=N)N/C=C/c1c(Cl)cccc1Cl [N-(2,6-dichlorostyryl)acetamidine]
Mouse electroshock; oral
  ED50: 44 mg/kg
Blood pressure [2]; intravenous 1.0 mg./kg.
  Reduction in blood pressure: 33%
Blood pressure [2]; intravenous 10.0 mg./kg.
  Reduction in blood pressure: 64%
Blood pressure [2]; intravenous 0.01 to 10 mg./kg.
  Reduction in blood pressure: dose related reduction in blood pressure
Blood pressure [3]; oral 5 to 50.0 mg./kg.
  Reduction of blood pressure: substantial reduction of blood pressure
Urine output; oral, 12.5 mg./kg. body weight
  Urine output: doubled the urine output

## CC(=N)N/C=C/c1ccc(Cl)c(Cl)c1 [N-(3,4-DICHLOROSTYRYL)ACETAMIDINE HYDROCHLORIDE]
Platelet aggregation
  IC50: < 30 µg/mL
[4]; 1 hr.
  % Inhibition of Blood Platelet Aggregation Induced by ADP: 50%
  % Inhibition of Blood Platelet Aggregation Induced by Collagen: 67%
[4]; 2 hrs.
  % Inhibition of Blood Platelet Aggregation Induced by ADP: 52%
  % Inhibition of Blood Platelet Aggregation Induced by Collagen: 50%
[4]; 4 hrs.
  % Inhibition of Blood Platelet Aggregation Induced by ADP: 67%
  % Inhibition of Blood Platelet Aggregation Induced by Collagen: 85%
[4]; 6 hrs.
  % Inhibition of Blood Platelet Aggregation Induced by ADP: 55%
  % Inhibition of Blood Platelet Aggregation Induced by Collagen: 55%
[4]; 24 hrs.
  % Inhibition of Blood Platelet Aggregation Induced by ADP: 0%
  % Inhibition of Blood Platelet Aggregation Induced by Collagen: 0%

## N=C(N/C=C/c1ccc(N)cc1)c1ccccc1 [N-(4-AMINOSTYRYL)BENZAMIDINE DIHYDROCHLORIDE]
Platelet aggregation
  IC50: < 30 µg/mL

## CC(=N)NCC=Cc1ccc(Cl)cc1 [N-(4-chlorocinnamyl)acetamidine, reference compound]
Mouse electroshock; 250 mg./kg. body weight
  Activity in mouse electroshock test: completely inactive
Blood pressure [2]; 1.0 mg./kg.
  Decrease in heart rate: 6%
  Increase in blood pressure: 12%
Blood pressure [2]; 10.0 mg./kg.
  Increase in blood pressure: 26%
Blood pressure [3]; 50 mg./kg.
  Antihypertensive effect: devoid of antihypertensive effects
  Change in blood pressure: slight increase in blood pressure
Urine output; oral dose 30 mg./kg. body weight
  Diuretic activity: essentially inactive
[5]
  Hypotensive effect: hypotensive effects which are quick in onset and of considerable duration

## CC(=N)NS(=O)(=O)C=Cc1ccc([N+](=O)[O-])cc1 [N-(4-nitrostyrylsulfonyl)-acetamidine, N-(4-NITROSTYRYLSULFONYL)ACETAMIDINE]
[1]; subcutaneous 6 mg./kg., time interval 60 min.
  Analgesic activity, Percent Inhibition: 36%

## CC(=N)NS(=O)(=O)C=Cc1ccccc1 [N-(styrylsulfonyl)acetamidine, N-(STYRYLSULFONYL)ACETAMIDINE]
[1]; subcutaneous 6 mg./kg., time interval 15 min.
  Analgesic activity, Percent Inhibition: 38%

## N=C(NS(=O)(=O)C=Cc1ccccc1)c1ccccc1 [N-(styrylsulfonyl)benzamidine, N-(STYRYLSULFONYL)BENZAMIDINE]
[1]; oral 100 mg./kg., time interval 60 min.
  Analgesic activity, Percent Inhibition: 26%
[1]; [6]
  Analgesic activity, Percent Inhibition: 36%

## CC(=N)NS(=O)(=O)C=Cc1ccc(Cl)c(Cl)c1 [N-[(3,4-DICHLOROSTYRYL)SULFONYL]ACETAMIDINE]
[1]; oral 100 mg./kg., time interval 120 min.
  Analgesic activity, Percent Inhibition: 36%
[1]; [6]
  Analgesic activity, Percent Inhibition: 28%

## N=C(N/C=C/c1ccccc1)c1ccccc1 [N-styrylbenzamidine hydrochloride, N-STYRYLBENZAMIDINE HYDROCHLORIDE]
Platelet aggregation
  IC50: < 30 µg/mL
